Patent US20240299484A1, “DILEUCINE COMPOSITIONS AND METHODS OF USE THEREOF” (Ingenious Ingredients, LP, priority 2023, published 2024)
Marks after values point to notes of the source that are not given here.

How the values were obtained:
Format in all cases: in vivo, Swiss Albino mice
[1] = Effect on body weight, 28-day oral supplementation with exercise; settings: for Body Weight (grams) Day −0: Day −0 (baseline); for Body Weight (grams) Day −0 / Body Weight (grams) Day −28: mice, n = 8; for Weight gain in grams: Day −0 to Day −28, oral once a day; for Body Weight (grams) Day −28: Day −28, oral once a day for 28 days; for Percentage weight loss over control: weight gain vs Exercise Control, 28 days
Protocol: (§1) Eight 8-week-old male Swiss Albino mice per experimental group were housed in an animal room at a constant temperature (22±3° C.) and humidity (30%-70%) under a 12:12 h light-dark cycle with standard laboratory diet (Purina 5L79, Rat and Mouse 18% protein; PMI Nutrition International, Brentwood, MO, USA). Distilled water was provided ad libitum. All animal experiments were reviewed and approved by the Institutional Animal Ethical Committee (IAEC) of Radiant Research Services Pvt. Ltd (Bangalore, India). All research was conducted in accordance with the guidelines of the committee for the purpose of control and supervision of experiments on animals (CPCSEA Registration Number-1803/PO/RcBi/S/2015/CPCSEA).
(§2) After one week of acclimation, the animals were randomly divided by body weight into different groups (n=8 per group in each test) for oral treatment once a day, at approximately same time each day (+1 hour), for 28 consecutive days: (1) vehicle control; (2) paraxanthine (3) dileucine; (4) paraxanthine+dileucine; (5) L-arginine; (6) L-arginine+dileucine; (7) L-citrulline; and (8) L-citrulline+dileucine. The dose administered to the mice was calculated using US Food and Drug Administration for human equivalence doses (HED), assuming a human weight of 60 kg. The following HED were used in this study: 2,000 mg dileucine (RAMPS™, Ingenious Ingredients, L.P., Lewisville, TX, USA; mouse 411 mg/kg bw), 100 mg paraxanthine, (ENFINITY™, Ingenious Ingredients, L.P Lewisville, TX, USA; mouse dose: 20.5 mg/kg bw/day); 3,000 mg L-arginine (Nanjing Nutrabuilding Bio-tech Co., LTD., No. 270 Jiqingmen Strect, Suning Huigu, Building E6, Room 2105, Nanjing, China 210017; mouse 616.55 mg/kg bw), 3,000 mg L-citrulline (Nanjing Nutrabuilding Bio-tech Co., LTD., No. 270 Jiqingmen Street, Suning Huigu, Building E6, Room 2105, Nanjing, China 210017; mouse 616.55 mg/kg bw). 0.5% Carboxy Methyl Cellulose sodium was used as vehicle and the test item formulations were prepared daily. Dosing was conducted via oral gavage using disposable polypropylene syringes with sterilized stainless steel gavage tubes. The food intake and water consumption were monitored daily, and BW was recorded weekly. The last dose on day 28 was given 1 hour prior to testing.
Individual body weights were recorded at receipt, on the day of randomization, on the first day of treatment before dosing (Day 1) and weekly thereafter. The body weight changes for all the animals were calculated and reported along with the body weight data.

[2] = Treadmill exercise / endurance test; parameters: Percentage Increase over control (number of shocks) / Percentage Increase over control (time on shock zone) / Percentage Increase over control (distance travelled): concentration or dose not given beside the values; settings: for Distance travelled (m) by mice during treadmill exercise Day −0 / No. of shocks during treadmill exercise Day −0 / Time spent on shock zone during excercise [sec] Day −0: Day −0 (baseline), n = 8, mice; for No. of shocks during treadmill exercise Day −28 / Time spent on shock zone during excercise [sec] Day −28: Day −28, oral once a day for 28 days; for Distance travelled (m) by mice during treadmill exercise Day −28: Day −28, until exhaustion, oral once a day for 28 days; for Distance Increase over Day −0 / No of Shocks Decrease over Day −0 / Time spent on shock zone over Day −0: Day −28 minus Day −0; for Percentage Increase over control (time on shock zone): change vs Exercise Control; for Percentage Increase over control (time on shock zone) / Percentage Increase over control (number of shocks) / Percentage Increase over control (distance travelled): 28 days; for Percentage Increase over control (number of shocks): decrease in shocks vs Exercise Control; for Percentage Increase over control (distance travelled): increase vs Exercise Control
Protocol: as §1, §2
During the treatment period, exercise training was completed using a motorized treadmill (Exer 3/6, Columbus Instruments international, OH, USA) at a moderate intensity of 20 cm/sec as maximal running speed, an incline of ten degrees and a shock intensity of 0.2 mA, for ten minutes. The speed of the treadmill was manually adjusted by increasing the belt speed by 5 cm/sec every two minutes throughout the total duration of ten minutes. All animals were adapted to this procedure daily 60 minutes after dosing for five days in a week during the treatment period.
On 28th day of each respective treatment, all animals were subjected to a muscle endurance test. Muscle endurance was accomplished on a motorized treadmill at a low to moderate intensity of 5-50 cm/sec as maximal running speed, an incline of ten degrees and a shock intensity of 0.2 mA, with the belt speed being increased by 5 cm/sec every two minutes until it reaches 50 cm/sec. Animals were subjected to the treadmill test until exhaustion. Distance traveled (m) was measured as a marker of exercise performance.

[3] = tested on: high-density lipids (HDL); test: Blood lipids: HDL; settings: for HDL Change over control [%]: vs Exercise Control, 28 days
Protocol: as §1, §2
(§3) All animals were euthanized by 95% CO2 after 28 days of following their assigned treatment. Blood was collected immediately after euthanization by the retro-orbital route and was immediately centrifuged at 1500×g for 10 min at 4° C. before having all serum transferred into cryogenic tubes and stored at −80° C.
(§4) Serum and plasma samples were separated by centrifuging the blood at 8000 rpm for 10 mins and analyze the below mentioned biomarkers, Biomarkers: TC, TG, LDL and HDL, CRP, Serum lactate, Ammonia, Glucose, NO, IL-2, IL-6, IL-10. Blood was collected in EDTA tubes for below mentioned biomarkers, Immune health Biomarkers (T helper subsets): TH1, TH2, TH17, Tfh, iTreg.

IL-2 = test: Inflammatory markers: IL-2; settings: for IL-2 Change over control [%]: vs Exercise Control, 28 days
Protocol: as §1, §2, §3, §4

IL-10 = test: Inflammatory markers: IL-10; settings: for IL-10 (pg/ml): after 28 days of supplementation and exercise, mice, n = 8; for IL-10 Change over control [%]: vs Exercise Control, 28 days
Protocol: as §1, §2, §3, §4

TH1 = test: Immune health biomarkers (T helper subsets): TH1; settings: for TH1(%): T helper subset in blood after 28 days, mice, n = 8; for TH1 Change over control [%]: vs Exercise Control, 28 days
Protocol: PMI Nutrition International, Brentwood, MO, USA). Distilled water was provided ad libitum. All animal experiments were reviewed and approved by the Institutional Animal Ethical Committee (IAEC) of Radiant Research Services Pvt. Ltd (Bangalore, India). All research was conducted in accordance with the guidelines of the committee for the purpose of control and supervision of experiments on animals (CPCSEA Registration Number-1803/PO/[…]). […] (1) vehicle control; […] (4) paraxanthine+dileucine; […] The dose administered to the mice was calculated using US Food and Drug Administration for human equivalence doses (HED), assuming a human weight of 60 kg. […] Dosing was conducted via oral gavage using disposable polypropylene syringes with sterilized stainless steel gavage tubes. The food intake and water consumption were monitored daily, and BW was recorded weekly. The last dose on day 28 was given 1 hour prior to testing. Serum and plasma samples were separated by centrifuging the blood at 8000 rpm for 10 mins and analyze the below mentioned biomarkers, Biomarkers: TC, TG, LDL and HDL, CRP, Serum lactate, Ammonia, Glucose, NO, IL-2, IL-6, IL-10. Blood was collected in EDTA tubes for below mentioned biomarkers, Immune health Biomarkers (T helper subsets): […]

iTreg = test: Immune health biomarkers (T helper subsets): iTreg; settings: for iTreg(%) (mg/L) / iTreg(%): T helper subset in blood after 28 days, mice, n = 8; for iTreg Change over control [%]: vs Exercise Control, 28 days
Protocol: as §1, §2, §4

[4] = after 28 days of supplementation, mice, n = 8
[5] = after 28 days of supplementation and exercise, mice, n = 8

SMILES	Body Weight (grams) Day −0 [1] [grams]	Weight gain in grams [1] [grams]	Body Weight (grams) Day −28 [1]	Percentage weight loss over control [1] [%]	Distance travelled (m) by mice during treadmill exercise Day −0 [2] [m]	No. of shocks during treadmill exercise Day −0 [2]	Time spent on shock zone during excercise [sec] Day −0 [2] [s]	No. of shocks during treadmill exercise Day −28 [2]	Time spent on shock zone during excercise [sec] Day −28 [2]	Distance travelled (m) by mice during treadmill exercise Day −28 [2]	Distance Increase over Day −0 [2] [m]	No of Shocks Decrease over Day −0 [2]	Time spent on shock zone over Day −0 [2] [s]	Percentage Increase over control (time on shock zone) [2] [%]	Percentage Increase over control (number of shocks) [2] [%]	Percentage Increase over control (distance travelled) [2] [%]	HDL Change over control [%] [3] [%]	IL-2 Change over control [%] (IL-2)	IL-10 (pg/ml) (IL-10)	IL-10 Change over control [%] (IL-10)	also measured
CC(C)C[C@H](NC(=O)[C@@H](N)CC(C)C)C(=O)O [Dileucine, L-Leucyl-L-leucine]	24.09	9.14	33.23* grams	−15	38.88	27.63	91	13***	31.88*** sec	328.5*** m	289.62	−14.63	-59.12	94	86	109	8	24	569.36*** pg/ml	8	HDL [mg/dl] [3, 4]: 37.63* mg/dl; IL-2 (ng/L) (IL-2; [5]): 46.4*** ng/L; TH1(%) (TH1): 58.86*** %; TH1 Change over control [%] (TH1): −37%; iTreg(%) (mg/L) (iTreg): 18.68*** %; iTreg Change over control [%] (iTreg): −66%
N=C(N)NCCC[C@H](N)C(=O)O [L-Arginine, L-arginine]	23	10.01	33.01* grams	−7	39.13	30.38	90	16.75***	35.13*** sec	314.25*** m	275.12	−13.63	-54.87	80	73	98	5	23	565.47** pg/ml	5	HDL [3, 4]: 35.86 mg/dL; IL-2 (ng/L) (IL-2; [5]): 42.04*** ng/L; TH1(%) (TH1): 53.66*** %; TH1 Change over control [%] (TH1): −43%; iTreg(%) (iTreg): 35.86*** %; iTreg Change over control [%] (iTreg): −34%
NC(=O)NCCC[C@H](N)C(=O)O [L-Citrulline, L-citrulline]	22.49	9.83	33.01* grams	−9	38.5	28.63	90.88	17.00***	36.63*** sec	312*** m	273.5	−11.63	-54.25	78	48	97	4	25	559.63** pg/ml	4	HDL [3, 4]: 35.63 mg/dL; IL-2 (ng/L) (IL-2; [5]): 42.8*** ng/L; TH1(%) (TH1): 59.71*** %; TH1 Change over control [%] (TH1): −36%; iTreg(%) (iTreg): 38.83*** %; iTreg Change over control [%] (iTreg): −29%
Cn1c(=O)[nH]c2ncn(C)c2c1=O [Paraxanthine, 1,7-dimethylxanthine]	24.35	8.86	33.21* grams	−18	41.13	26.5	90.75	13.38***	32.25*** sec	325.75*** m	284.62	−13.12	-58.5	92	67	105	4	23	571.71*** pg/ml	8	HDL [3, 4]: 36.36 mg/dL; IL-2 (IL-2; [5]): 45.91 ng/L; TH1(%) (TH1): 65.68*** %; TH1 Change over control [%] (TH1): −30%; iTreg(%) (mg/L) (iTreg): 23.68*** %; iTreg Change over control [%] (iTreg): −57%
